According to the NIST ThermoML archive (doi:10.1016/j.fluid.2016.01.050):
Numbers after ± are expanded uncertainties.

Key:
[1] = 298 K; 101.33 kPa; Liquid; Vibrating tube method
[2] = refractive index (Na D-line) (dimensionless); conditions: 298 K; 101.33 kPa; Liquid; Standard Abbe refractometry

## CC(O)c1ccccc1 (stereo not drawn) [1-phenylethanol]
[1]
  mass density: 1006.48 ± 0.38 kg/m3
[2]
  refractive index: 1.52467 ± 0.00042

## c1ccc(COCc2ccccc2)cc1 [dibenzyl ether]
[1]
  mass density: 1039.32 ± 0.4 kg/m3
[2]
  refractive index: 1.56019 ± 0.00042

## Clc1ccccc1 [chlorobenzene]
[1]
  mass density: 1101.08 ± 0.44 kg/m3
[2]
  refractive index: 1.52165 ± 0.00042

## CCCCC(=O)O [pentanoic acid]
[1]
  mass density: 935.04 ± 0.37 kg/m3
[2]
  refractive index: 1.40718 ± 0.00042
